This assay relates to cytolytic T lymphocyte induction (51Cr labeled P815 target cells). Nature of the assay: Cytolytic T-lymphocyte induction in vivo (splenic cytolytic activity, 4-hour 51Cr release assay). Also noted: species or system C57BL/6 mice. To be noted: DFMO 2% in drinking water from day 1; splenic CTL activity day 10; vs vehicle treated control.

Here are results for one compound from US5013719A, “Method of effecting immunosuppression” (Merrell Dow Pharmaceuticals Inc., priority 1988, dated 1991).

SMILES strings stand for the structures.

Procedure: Alloreactive cytolytic T-lymphocytes (CTL) are generated in vivo by injecting C57BL/6 mice intraperitoneally with allogenic P815 (H-2^d) cells (10^7) on day 0.
Splenic cytolytic activity, which represents a direct measurement of immune response, is assessed by a 4-hour ^51 Cr release assay as described by Bowlin et al., Cell. […] Effector cells are characterized as T-cells based on surface phenotype (Thy 1.2^+, Lyt 2.2^+, L3T4^-) and allo-specificity (H-^2 d) as described by Bowlin et al., Cell Immunnol.
^a C57BL/6 mice were injected with allogeneic P815 cells on day 0.
DFMO was administered continuously, starting on day 1, in drinking water.
^b Splenic cytolytic T lymphocyte activity was assessed on day 10
utilizing ^51 Cr labeled P815 target cells. Data is expressed as %
inhibition compared with vehicle treated control.

For the compound `NCCC[C@](N)(C(=O)O)C(F)F` [DFMO, α-difluoromethylornithine], the “Cytolytic T Lymphocyte Induction % Inhibition (mean ± S.E., n = 3)” value was 10 ± 0.5%.
